# Assay results from publication PMC13397736, “LEP-AD: language embedding of proteins and attention to drugs predicts drug-target interactions” (Journal of Cheminformatics, 2026).
# Molecular target: Src kinase (Homo sapiens, UniProt P12931)
# Experiment: ADP-Glo kinase assay, […] Src, […] ATP, peptide substrate
# Sequence of Src kinase (P12931 2-536): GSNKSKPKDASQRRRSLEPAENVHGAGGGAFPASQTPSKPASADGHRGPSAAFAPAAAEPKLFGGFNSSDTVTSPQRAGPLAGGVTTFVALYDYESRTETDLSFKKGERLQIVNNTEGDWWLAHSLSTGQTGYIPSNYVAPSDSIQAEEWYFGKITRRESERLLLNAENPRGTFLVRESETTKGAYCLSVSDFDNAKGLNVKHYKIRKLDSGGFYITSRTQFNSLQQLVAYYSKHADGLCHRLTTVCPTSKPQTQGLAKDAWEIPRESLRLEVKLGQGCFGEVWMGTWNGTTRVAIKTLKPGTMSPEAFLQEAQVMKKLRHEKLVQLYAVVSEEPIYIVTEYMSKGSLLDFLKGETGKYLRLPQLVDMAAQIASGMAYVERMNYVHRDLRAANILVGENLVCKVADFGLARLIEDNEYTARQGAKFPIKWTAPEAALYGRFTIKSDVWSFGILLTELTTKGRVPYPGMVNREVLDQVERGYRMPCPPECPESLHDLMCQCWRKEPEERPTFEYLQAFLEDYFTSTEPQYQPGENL
smiles,measurement,value
Cc1nc(Nc2ncc(C(=O)Nc3cc(NC(=O)c4cccc(C(F)(F)F)c4)ccc3C)s2)cc(N2CCN(CCO)CC2)n1 [UM-164],IC50,0.323 µM
